Peptide text beside a SMILES is read from it.
Biological target: T1, ASIC1a F302A (Homo sapiens, UniProt P78348, F302A)
T1 construct: expressed in transfected cells; host or cells: Xenopus laevis oocytes injected with cRNA
T1 sequence (P78348 1-528 F302A): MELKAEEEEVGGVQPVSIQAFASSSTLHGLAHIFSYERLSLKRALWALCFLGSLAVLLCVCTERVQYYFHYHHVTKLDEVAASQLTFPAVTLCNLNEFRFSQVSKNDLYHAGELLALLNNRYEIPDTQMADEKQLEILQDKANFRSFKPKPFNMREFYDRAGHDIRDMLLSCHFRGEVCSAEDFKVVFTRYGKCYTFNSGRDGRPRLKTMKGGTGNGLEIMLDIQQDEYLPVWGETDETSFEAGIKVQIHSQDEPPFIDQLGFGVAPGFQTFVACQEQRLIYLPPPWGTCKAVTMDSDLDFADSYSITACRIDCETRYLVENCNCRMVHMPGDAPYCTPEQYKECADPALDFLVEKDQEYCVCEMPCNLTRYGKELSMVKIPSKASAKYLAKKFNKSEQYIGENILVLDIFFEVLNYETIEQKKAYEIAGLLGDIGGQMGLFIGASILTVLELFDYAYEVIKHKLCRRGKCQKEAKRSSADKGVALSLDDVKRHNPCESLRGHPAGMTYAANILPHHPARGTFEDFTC
Test: Isust/Ipeak, TEVC in Xenopus oocytes
Format: cell-based
Settings: pH5, n = 8–10, mean ± SEM, read-out: EC50 of FRRFa-mediated sustained current induction
Excerpt: To scan the pocket and predicted entrance area with mutagenesis, we chose the residues with a potential to form hydrophobic (Ile312, Val187), aromatic (Phe 257, Phe301, Phe302) or electrostatic (Glu254, Asp303, Ser199, Asp253, Glu315) interactions with the peptide. For this analysis, we used mutation to Ala, and complemented the scan with mutation to Cys and subsequent chemical modification only for a selected residue. […] Phe302 is part of a loop connecting palm and thumb domains in the close neighbourhood of the thumb base. The observed increased Isust/Ipeak ratio of F302A (Fig. 4b,e) could simply be due to a better accessibility of the cavity of the putative RFa binding site in the thumb base, because Phe302 has a larger side chain than has Ala to which it was mutated. To test this hypothesis, we mutated Phe302 to Cys and exposed the mutant to the sulfhydryl reagent trimethylammonium-methyl methanethiosulfonate ([…]; 1 mM during 3 min) before the exposure to FRRFa. […]
Electrophysiological measurements were performed 1–2 days after cRNA injection. Ion currents were recorded using two-electrode voltage-clamp at a holding potential of −60 mV with a Dagan TEV-200 amplifier (Minneapolis, MN). […] The amplitude of the sustained current was measured in the last two seconds of the pH5 perfusion. […]

N=C(N)NCCC[C@H](NC(=O)[C@H](CCCNC(=N)N)NC(=O)[C@@H](N)Cc1ccccc1)C(=O)N[C@@H](Cc1ccccc1)C(N)=O [FRRFa, Phe-Arg-Arg-Phe-amide] (H-FRRF-NH2)
EC50: 11 ± 2 µM

Reference: paper PMC6385203, “Mutations in the palm domain disrupt modulation of acid-sensing ion channel 1a currents by neuropeptides” (Scientific Reports, 2019)
